Source: PMC11215077, “Antiviral activity of temporin-1CEb analogues against gingival infection with herpes simplex virus type 1” (Frontiers in Oral Health, 2024)
In brackets after ≈: the same amount, converted by molar mass. Like-named read-outs stand apart in the source and are kept apart here. Square brackets hold non-standard residues; d marks the D form. Peptide text beside a SMILES is read from it. AEEA = NCCOCCOCC(=O)O

Assays:
[1] = test system: HSV-1; assay: Antiviral activity in 3D organotypic model of human gingiva (OTG); format: cell-based, herpes simplex virus type 1; conditions: 15 μg/ml; H&E stained sections; Figure 5A
Procedure: Protocol was described previously ([34]). Briefly, to prepare 3D cultures, 150,000 gingival fibroblasts suspended in 10% FBS in DMEM were mixed with 2.4 ml of ice-cold Matrigel® (Corning) (final concentration 7 mg/ml) and placed in the middle of 12-well cell culture inserts (Greiner). Three days later, 1 × 10^6 TIGK cells suspended in EPM1 were added to the top of the insert. On the ninth day after the start of the procedure, the old culture medium was removed and EPM2 was added to the bottom of the insert. The epithelial layer on the top was exposed to the air, which promotes epithelial differentiation and then stratification. About 8–10 days after air-liquid interphase, 3D cultures of gingiva were used for further experiments.
The apical surface of OTG model was washed three times with PBS and then inoculated with 100 μl of viral stock (TCID50 400 /ml) in the presence of DAL-PEG-LK6 or CPP1-PEG-LK6 (15 μg/ml) for 2 h at 4°C. Following incubation, the unbound HSV-1 was removed by washing with PBS for 10 min at 37°C, and the OTG cultures were maintained at an air-liquid interface for the rest of the experiment. To determine viral yield, 120 μl of PBS was applied to the apical surface of the OTG, and harvested for DNA isolation after 10 min of incubation at 37°C.
Briefly, cell inserts were fixed in 10% formaldehyde at 4°C for 1 h. After embedding in paraffin, 3D cultures were cut into 5 μm sections and stained with H&E solution. For immunohistochemical analysis, slides were incubated for 1 h at room temperature in blocking buffer (5% normal goat serum, 0.1% saponin in PBS) and stained with primary antibodies anti-HSV-1 (1:100, 1% normal goat serum, 0.1% saponin in PBS; Abcam) and secondary antibodies: goat anti-rabbit conjugated with Alexa Fluor 488 (1:2000; Cell Signaling). Finally, cell nuclei were stained with ProLong Antifade Mounting Medium with DAPI. Slides were visualized with EVOS FL Cell Imaging System (Thermo Fisher Scientific).
(§1) Viral DNA was isolated from the conditioned media or the apical washes of inserts (OTG model) using Viral DNA/RNA Isolation Kit (A&A Biotechnology). The virus yield assessed by quantitative real-time PCR (qPCR). The reaction was carried out in a CFX96 Touch Real-Time PCR Detection System (Bio-Rad), in a 10 μl reaction mixture consisting of TaqMan^TM Fast Advanced Master Mix, TaqMan^TM Microbe Detection assay against HSV-1 (Vi04230116_s1) and 1 μl of viral DNA. The temperature profile was 10 s at 95°C, followed by 40 cycles of 3 s at 95°C and 20 s at 60°C. DNA quantification standards were prepared. In summary, a fragment of viral DNA was amplified using the primers listed above and cloned into the pTZ57R/T plasmid using the InsTAclone PCR cloning kit. The plasmid was propagated in E. coli, purified with the GeneJet Plasmid Miniprep Kit, and digested with the EcoR1 restriction enzyme. The number of copies per mL was estimated after the concentration of linearized DNA was assessed spectrophotometrically.

[2] = Analytical RP-HPLC retention time; conditions: Phenomenex Jupiter 4 μ Proteo 90 Å, 250 × 4.60 mm, listed as basic physicochemical characteristic
Procedure: The synthesized compounds were then purified by reverse-phase high-performance liquid chromatography (RP-HPLC) on a Waters system (Phenomenex Jupiter 4 μ Proteo 90 Å column, 250 × 10 mm). A linear gradient from 10% to 80% of solvent B over 60 min (Solvent A: 0.1% TFA in water; Solvent B: 80% acetonitrile in Solvent A) was employed with a flow rate 5 ml/min. The homogeneity of the final peptide fractions was analyzed using a Shimadzu HPLC System (Shimadzu Europe GmbH, Duisburg, Germany) equipped with a Phenomenex Jupiter 4 μ Proteo 90 Å column, 250 × 4.60 mm. The mass spectra of the synthesized peptides were recorded using a Biflex III MALDI-TOF mass spectrometry (Bruker, Mannheim, Germany) with α-cyano-4-hydroxy-cinnamic acid (CCA) or 2,5-dihydroxybenzoic acid (DHB) used as the matrix.

[3] = test system: HSV-1; assay: Virus inhibition (replication) assay in Vero E6 and TIGKs cells, qPCR, titration, gB Western blot; format: cell-based, herpes simplex virus type 1; conditions: 48 h p.i.
Procedure: HSV-1 stocks were generated by infecting Vero E6 cells. Cells were lysed at 48 h p.i. by two freeze-thaw cycles. The virus containing fluid was aliquoted and stored at −80°C. A control Vero E6 cell lysate from mock-infected cells was prepared in the same manner as the virus stock. Virus yield was assessed by virus titration on fully confluent Vero E6 cells in 96-well plates, according to the method of Reed & Muench ([32]). Plates were incubated at 37°C for 48 h and the occurrence of a cytopathic effect was scored using an inverted microscope, and TCID50 (50% tissue culture infection dose) was calculated.
Vero E6 or TIGKs cells were seeded in 12-well plates and cultured for 48 h. […] After 30 min of incubation at 37°C, cells were infected with HSV-1 at TCID50 400 /ml or treated with mock. After 2 h of infection at 37°C, unbound viral particles were removed by washing with PBS, and culture media supplemented with peptide conjugates were applied. Following 48 h of incubation, media were collected, and the quantity of HSV-1 DNA copies was assessed using titration and qPCR.
as §1
Protein extracts were prepared using lysis buffer (0.25% Na-deoxycholate, 0.5% Nonidet P-40, 0.05% SDS, protease inhibitor mixture, 2.5 mM EDTA in PBS), and the protein concentration was assessed using Pierce BCA (Thermo Fisher) protein assay kit. Equal amounts of cell extracts were separated on 10% SDS-PAGE gel and electrotransferred onto polyvinylidene difluoride membranes for gB and β-actin in transfer buffer (25 mM Tris, 0.2 M glycine, and 20% ethanol) for 90 min at 100 V. Nonspecific binding sites were blocked for 90 min in 5% skimmed milk prepared in TBST buffer (20 mM Tris, pH 7.5, 0.5 M NaCl, 0.05% Tween 20). Membranes were further incubated overnight at 4°C with primary antibodies: mouse anti-HSV-1 + HSV-2 gB (1:5000; abcam) and mouse anti-β-actin (1:4,000; BD Biosciences). The following day, membranes were washed three times with TBST buffer and incubated with HRP-conjugated secondary antibodies for 60 min at 37°C: goat anti-mouse IgG (1:20,000; β-actin; BD Bioscience) or sheep anti-mouse IgG (1:50,000; gB; Sigma Aldrich). Next, blots were washed five times for 5 min in TBST buffer, developed using Luminata Cresecendo Substarte (Merck) and exposed to AGFA medical x-ray film. Densitometry analysis was performed using ImageJ 1.52q software.

[4] = in vitro
Procedure: The viability of Vero E6 and TIGKs cells was examined by the XTT Cell Viability Assay kit (Biological Industries, USA). Briefly, cells were treated with indicated concentrations of the peptide conjugates for 48 h at 37°C. Next, the fresh medium was added to the cells and 50 μl of the activated XTT reagent [2,3-bis(2-methoxy-4-nitro-5-sulphenyl)-2H-tetrazolium-5-carboxanilide] was added and further incubated for 2 h at 37°C. Absorbance was measured at a wavelength of 480 nm using FlexStation 3 microplate reader (Molecular Device, Wokingham, UK). The results were expressed normalized against a control of untreated cells (100% viability). To assess the effect of peptide conjugate on the integrity of the plasma membrane, the LDH release assay was performed using the CytoTox96 nonradioactive cytotoxicity assay kit (Promega, Madison, WI, USA) according to the manufacturer's instructions. Cytotoxicity was calculated with the formula: % cytotoxicity = 100 × (experimental LDH release/ maximum LDH release), where maximum LDH release is after lysis solution addition (Triton X-100). Relative amounts of LDH release were measured (absorbance at 490 nm) using FlexStation 3 microplate reader (Molecular Device, Wokingham, UK). […]
Data were expressed as means ± SD. Statistical significance was determined using unpaired t-test, one-way ANOVA, and/or two-way ANOVA for direct comparisons between single groups. […]

[5] = test system: HSV-1; conditions: concentration reducing viral replication by 50%; TIGKs cells pre-treated, infected and cultivated with compound; qPCR; mean of two independent experiments
Procedure: Data were expressed as means ± SD. Statistical significance was determined using unpaired t-test, one-way ANOVA, and/or two-way ANOVA for direct comparisons between single groups. A p-value <0.05 was considered statistically significant. We used GrapPad Prism 10 software for the analyses. […]

[6] = test system: HSV-1; parameters: method as in PMID 29483113; conditions: different model of epithelial cells; cited from earlier work
From the text: In our studies, we initially utilized the Vero E6 cell line, which has been a long-standing choice in herpesviruses research ([40], [41]).

In the case of `CC[C@H](C)[C@H](NC(=O)COCCOCCNC(=O)[C@H](CCCNC(=N)N)NC(=O)[C@H](CC(C)C)NC(=O)[C@H](Cc1ccccc1)NC(=O)CNC(=O)[C@@H](C)NC(=O)[C@@H](N)Cc1ccc(O)cc1)C(=O)N[C@@H](CCCCN)C(=O)N[C@@H](CCCCN)C(=O)N[C@H](C(=O)N[C@@H](CC(C)C)C(=O)N[C@@H](CO)C(=O)N[C@H](CCCCN)C(=O)N[C@H](C(=O)N[C@@H](CCCCN)C(=O)N[C@@H](CCCCN)C(=O)N[C@@H](CC(C)C)C(=O)N[C@@H](CC(C)C)C(N)=O)[C@@H](C)CC)[C@@H](C)CC` [DAL-PEG-DK5] (H-Y[dA]GFLR[AEEA]IKKILS[dK]IKKLL-NH2), the “morphology of epithelial cells in OTG (H&E)” value [1] is reported as “no changes in the morphology of epithelial cells”.

With “RKKRRQRRR-O2Oc-IKKILSKIKKLLK-NH2 [CPP2-PEG-LK6, conjugate of cationic cell-penetrating peptide (HIV-1 TAT49–57 fragment) with LK6 via PEG linker]” the Rt [2] was 20.094, the “reduction in viral yield in the qPCR test” value ([3]; Figure 1C, Vero E6 (DAL-PEG-LK6 and CPP1-PEG-LK6 25 μg/ml; CPP2-PEG-LK6 10 μg/ml) and TIGKs cells (15 μg/ml)) was 1 log and the “reduction of virus replication in titration assay” value ([3]; Figure 1D, both cell models (Vero E6, TIGKs), normalized to untreated control) was 97%.

`CC[C@H](C)[C@H](NC(=O)COCCOCCNC(=O)[C@H](CCCNC(=N)N)NC(=O)[C@H](CC(C)C)NC(=O)[C@H](Cc1ccccc1)NC(=O)CNC(=O)[C@@H](C)NC(=O)[C@@H](N)Cc1ccc(O)cc1)C(=O)N[C@@H](CCCCN)C(=O)N[C@@H](CCCCN)C(=O)N[C@H](C(=O)N[C@@H](CC(C)C)C(=O)N[C@@H](CO)C(=O)N[C@@H](CCCCN)C(=O)N[C@H](C(=O)N[C@@H](CCCCN)C(=O)N[C@@H](CCCCN)C(=O)N[C@@H](CC(C)C)C(=O)N[C@@H](CC(C)C)C(=O)N[C@@H](CCCCN)C(N)=O)[C@@H](C)CC)[C@@H](C)CC` [DAL-PEG-LK6] (H-Y[dA]GFLR[AEEA]IKKILSKIKKLLK-NH2) showed a CC50 at 48 h [4] of 33.8 µg/mL (≈ 14.1 µM) and an IC50 [5] of 3.699 µg/mL (≈ 1.54 µM).

In the case of temporin B, the IC50 [6] is given as 93 µg/mL.
